System: 354836-022-R-J1-PDC multicell spheroid viability
Test: Anticancer human tumor 354836-022-R-J1-PDC patient-derived head and neck squamous cell carcinoma cell line growth inhibition [PI3K]
Settings: for IC50: curve of first compound; for viability, T/C: stronger effect = lower value
How it was run: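 Tumor cells grown as multi-cell spheroids with HUVEC endothelial cells and MSC fibroblast-like stroma were treated with targeted agents combined with inavolisib, alpelisib, duvelisib or copanlisib. Doses fell in half-log steps from near clinical Cmax, else from 10 microM. Viability was measured.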

[1] = second compound 0.0316 µM, first compound 0.0316 µM
[2] = second compound 0.0316 µM, first compound 0.1 µM
[3] = second compound 0.0316 µM, first compound 0.316 µM
[4] = second compound 0.0316 µM, first compound 1 µM
[5] = second compound 0.0316 µM, first compound 3.16 µM
[6] = second compound 0.0316 µM, first compound 10 µM
[7] = second compound 0.1 µM, first compound 0.0316 µM
[8] = second compound 0.1 µM, first compound 0.1 µM
[9] = second compound 0.1 µM, first compound 0.316 µM
[10] = second compound 0.1 µM, first compound 1 µM
[11] = second compound 0.1 µM, first compound 3.16 µM
[12] = second compound 0.1 µM, first compound 10 µM
[13] = second compound 0.316 µM, first compound 0.0316 µM
[14] = second compound 0.316 µM, first compound 0.1 µM
[15] = second compound 0.316 µM, first compound 0.316 µM
[16] = second compound 0.316 µM, first compound 1 µM
[17] = second compound 0.316 µM, first compound 3.16 µM
[18] = second compound 0.316 µM, first compound 10 µM
[19] = second compound 1 µM, first compound 0.0316 µM
[20] = second compound 1 µM, first compound 0.1 µM
[21] = second compound 1 µM, first compound 0.316 µM
[22] = second compound 1 µM, first compound 1 µM
[23] = second compound 1 µM, first compound 3.16 µM
[24] = second compound 1 µM, first compound 10 µM
[25] = second compound 3.16 µM, first compound 0.0316 µM
[26] = second compound 3.16 µM, first compound 0.1 µM
[27] = second compound 3.16 µM, first compound 0.316 µM
[28] = second compound 3.16 µM, first compound 1 µM
[29] = second compound 3.16 µM, first compound 3.16 µM
[30] = second compound 3.16 µM, first compound 10 µM
[31] = second compound 10 µM, first compound 0.0316 µM
[32] = second compound 10 µM, first compound 0.1 µM
[33] = second compound 10 µM, first compound 0.316 µM
[34] = second compound 10 µM, first compound 1 µM
[35] = second compound 10 µM, first compound 3.16 µM
[36] = second compound 10 µM, first compound 10 µM
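Also: spheroids exposed to agents for seven days before the viability read.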

C#Cc1c(F)ccc2cc(O)cc(-c3ncc4c(N5CC6CCC(C5)N6)nc(OCC56CCCN5CC(F)C6)nc4c3F)c12 (stereo unspecified) + CC(Nc1ncnc2nc[nH]c12)c1cc2cccc(Cl)c2c(=O)n1-c1ccccc1
IC50 (second compound 0.0316 µM): > 10 µM | IC50 (second compound 0.1 µM): > 10 µM | IC50 (second compound 0.316 µM): > 10 µM | IC50 (second compound 1 µM): > 10 µM | IC50 (second compound 3.16 µM): > 10 µM | IC50 (second compound 10 µM): > 10 µM | viability, T/C [1]: 94.8% | viability, T/C [2]: 85% | viability, T/C [3]: 88.6% | viability, T/C [4]: 105% | viability, T/C [5]: 85.5% | viability, T/C [6]: 96.4% | viability, T/C [7]: 84.9% | viability, T/C [8]: 105% | viability, T/C [9]: 96.4% | viability, T/C [10]: 96.2% | viability, T/C [11]: 110% | viability, T/C [12]: 102% | viability, T/C [13]: 85.4% | viability, T/C [14]: 110% | viability, T/C [15]: 103% | viability, T/C [16]: 108% | viability, T/C [17]: 98.3% | viability, T/C [18]: 89.9% | viability, T/C [19]: 91.1% | viability, T/C [20]: 86.9% | viability, T/C [21]: 100% | viability, T/C [22]: 92.3% | viability, T/C [23]: 96.4% | viability, T/C [24]: 74.9% | viability, T/C [25]: 95.4% | viability, T/C [26]: 105% | viability, T/C [27]: 96.3% | viability, T/C [28]: 110% | viability, T/C [29]: 99% | viability, T/C [30]: 70% | viability, T/C [31]: 95.3% | viability, T/C [32]: 82.5% | viability, T/C [33]: 84.5% | viability, T/C [34]: 80.8% | viability, T/C [35]: 78.4% | viability, T/C [36]: 75.1%

CC1(C)CCC(Nc2ncc(C(F)(F)F)c(-c3c[nH]c4c(P(C)(C)=O)c(C#N)ccc34)n2)CN1 (stereo unspecified) + CC(Nc1ncnc2nc[nH]c12)c1cc2cccc(Cl)c2c(=O)n1-c1ccccc1
IC50 (second compound 0.0316 µM): < 0.0316 µM | IC50 (second compound 0.1 µM): < 0.0316 µM | IC50 (second compound 0.316 µM): < 0.0316 µM | IC50 (second compound 1 µM): < 0.0316 µM | IC50 (second compound 3.16 µM): < 0.0316 µM | IC50 (second compound 10 µM): < 0.0316 µM | viability, T/C [1]: 13.4% | viability, T/C [2]: 10.9% | viability, T/C [3]: 15.2% | viability, T/C [4]: 12.4% | viability, T/C [5]: 13.8% | viability, T/C [6]: 1.65% | viability, T/C [7]: 12.6% | viability, T/C [8]: 13.2% | viability, T/C [9]: 15.7% | viability, T/C [10]: 16% | viability, T/C [11]: 16.1% | viability, T/C [12]: 2.44% | viability, T/C [13]: 11.3% | viability, T/C [14]: 13.9% | viability, T/C [15]: 12.4% | viability, T/C [16]: 14.8% | viability, T/C [17]: 14% | viability, T/C [18]: 2.31% | viability, T/C [19]: 12.3% | viability, T/C [20]: 13.2% | viability, T/C [21]: 14% | viability, T/C [22]: 14.3% | viability, T/C [23]: 16.8% | viability, T/C [24]: 1.85% | viability, T/C [25]: 10.7% | viability, T/C [26]: 13.8% | viability, T/C [27]: 13.7% | viability, T/C [28]: 15% | viability, T/C [29]: 16% | viability, T/C [30]: 1.2% | viability, T/C [31]: 17% | viability, T/C [32]: 16.9% | viability, T/C [33]: 14.9% | viability, T/C [34]: 21.3% | viability, T/C [35]: 16.8% | viability, T/C [36]: 0.91%

Cn1cnc2c(F)c(Nc3ccc(Br)cc3Cl)c(C(=O)NOCCO)cc21 + COc1c(OCCCN2CCOCC2)ccc2c3n(c(=NC(=O)c4cnc(N)nc4)nc12)CCN3
IC50 (second compound 0.00316 µM): > 3 µM | IC50 (second compound 0.01 µM): > 3 µM | IC50 (second compound 0.0316 µM): 1.86 µM | IC50 (second compound 0.1 µM): < 0.00949 µM | IC50 (second compound 0.316 µM): < 0.00949 µM | IC50 (second compound 1 µM): < 0.00949 µM | viability, T/C (second compound 0.00316 µM, first compound 0.00949 µM): 107% | viability, T/C (second compound 0.00316 µM, first compound 0.03 µM): 86.2% | viability, T/C (second compound 0.00316 µM, first compound 0.0949 µM): 89.4% | viability, T/C (second compound 0.00316 µM, first compound 0.3 µM): 96.6% | viability, T/C (second compound 0.00316 µM, first compound 0.949 µM): 75.5% | viability, T/C (second compound 0.00316 µM, first compound 3 µM): 58% | viability, T/C (second compound 0.01 µM, first compound 0.00949 µM): 83.3% | viability, T/C (second compound 0.01 µM, first compound 0.03 µM): 84.6% | viability, T/C (second compound 0.01 µM, first compound 0.0949 µM): 78.3% | viability, T/C (second compound 0.01 µM, first compound 0.3 µM): 89.2% | viability, T/C (second compound 0.01 µM, first compound 0.949 µM): 75.4% | viability, T/C (second compound 0.01 µM, first compound 3 µM): 60.7% | viability, T/C (second compound 0.0316 µM, first compound 0.00949 µM): 81.2% | viability, T/C (second compound 0.0316 µM, first compound 0.03 µM): 80% | viability, T/C (second compound 0.0316 µM, first compound 0.0949 µM): 67.8% | viability, T/C (second compound 0.0316 µM, first compound 0.3 µM): 66.9% | viability, T/C (second compound 0.0316 µM, first compound 0.949 µM): 66.3% | viability, T/C (second compound 0.0316 µM, first compound 3 µM): 41% | viability, T/C (second compound 0.1 µM, first compound 0.00949 µM): 43.8% | viability, T/C (second compound 0.1 µM, first compound 0.03 µM): 48.6% | viability, T/C (second compound 0.1 µM, first compound 0.0949 µM): 38.3% | viability, T/C (second compound 0.1 µM, first compound 0.3 µM): 41.9% | viability, T/C (second compound 0.1 µM, first compound 0.949 µM): 31.2% | viability, T/C (second compound 0.1 µM, first compound 3 µM): 15.2% | viability, T/C (second compound 0.316 µM, first compound 0.00949 µM): 12.7% | viability, T/C (second compound 0.316 µM, first compound 0.03 µM): 9.02% | viability, T/C (second compound 0.316 µM, first compound 0.0949 µM): 11% | viability, T/C (second compound 0.316 µM, first compound 0.3 µM): 9.87% | viability, T/C (second compound 0.316 µM, first compound 0.949 µM): 5.57% | viability, T/C (second compound 0.316 µM, first compound 3 µM): 1.48% | viability, T/C (second compound 1 µM, first compound 0.00949 µM): 1.58% | viability, T/C (second compound 1 µM, first compound 0.03 µM): 1.2% | viability, T/C (second compound 1 µM, first compound 0.0949 µM): 1.03% | viability, T/C (second compound 1 µM, first compound 0.3 µM): 1.25% | viability, T/C (second compound 1 µM, first compound 0.949 µM): 0.64% | viability, T/C (second compound 1 µM, first compound 3 µM): 0.57%

Source: PubChem BioAssay AID1963981 (Molecular Pharmacology Branch, DTP, NCI, 2024)
